According to patent US10709907B2, “Taurine and aloe synergistic anti-irritant compositions and methods” (Colgate-Palmolive Company, priority 2016, dated 2020):

Columns and labels:
[1] = test system: In vitro skin samples (MatTek EpiDerm); experiment: Cytotoxicity Assay (MTT), cell viability of reconstructed human epidermis; format: cell-based; conditions: for MTT (% cell viability): untreated Control = 100
Protocol: (§1) Two in vitro reconstructed human epidermis models were employed to assess the relative irritation potential of selected test samples, the Cytotoxicity Assay (MTT) and the Irritation Assay (IL-1α Release Assay), described below.
Cytotoxicity Assay (MTT):
Cell damage was evaluated by assessing mitochondrial metabolic activity using 3-[4,5-dimethylthiazol-2-yl]-2,5-diphenyltetrazolium bromide (MTT-reduction assay) upon exposure to the test sample. MTT solution was prepared as 1.0 mg/ml in Phosphate Buffered Saline (PBS) just before usage. In vitro skin samples (MatTek EpiDerm) were treated topically with the test sample for 1 hour in a tissue culture incubator. Following the incubation, skin samples were washed with PBS and placed in 24 well tissue culture plates, and 500 μl of the MTT solutions were added to each well and incubated at 37° C. for 2 hours. The cell survivability was analyzed by measuring the ability of the cell's mitochondria to reduce the colorless MTT to a colored formazan crystalline end product. The reaction was terminated by the removal of the MTT solution from the wells. Addition of 1.0 mL of 0.04M HCl in isopropanol to each well was used to dissolve the intracellular MTT formazan crystals. The contents of each well were mixed gently in an orbital shaker at room temperature for 1 hour and the absorbency at 570 nm was measured by an ELISA plate reader (SpectraMax M5 Multi-Mode Microplate Readers, Molecular Devices, California).

[2] = test system: IL-1α release, 3D EpiDerm skin models (SIT-200 skin irritation model); experiment: Irritation Assay (IL-1α Release Assay) by ELISA; format: cell-based, human; conditions: untreated Control = 100
From the text: as §1
Irritation Assay (IL-1α Release Assay):
To document the skin irritation of Antiperspirant Active Ingredients, we have conducted in vitro experiments using 3D EpiDerm skin models (SIT-200 skin irritation model, MatTek Corporation, Ashland, Mass. 01721). In vitro skin samples were treated topically with the test compound for 1 hour in tissue culture incubator. Following the incubation, skin samples were washed with PBS and placed in a culture medium and continue to incubate for 24 hours. Cell culture media was collected for IL-1α release assay. Higher the IL-1a release means higher the irritation potential. IL-1α release was analyzed by ELISA assay kit (Invitrogen, Grand Island, N.Y. 14072) and (R&D Systems, Minneapolis, Minn. 55413).

Row | SMILES | MTT (% cell viability) ([1]; Example 3, formulated samples) [%] | IL-1α (percentage compared to untreated tissue) ([2]; Example 3, formulated samples) [%] | MTT (% cell viability) ([1]; Example 1, topical treatment 1 hour) [%] | reduction of cell viability compared to untreated tissue (MTT) ([1]; Example 2) | MTT (% cell viability) ([1]; Example 2, topical treatment 1 hour) [%] | IL-1α (percentage of the test value for the Control) ([2]; Example 1, topical treatment 1 hour, then 24 hours in culture medium) [%] | IL-1α (percentage compared to untreated tissue) ([2]; Example 2, topical treatment 1 hour, then 24 hours in culture medium) [%]
1 | O.O.O.O.O.O.[Al+3].[Cl-].[Cl-].[Cl-] [12% AlCl3, Aluminum Chloride Hexaaqua] | 99 | 234 |  |  |  |  | 
2 | O.O.O.O.O.O.[Al+3].[Cl-].[Cl-].[Cl-] [14% AlCl3, Aluminum Chloride Hexaaqua] |  |  | 78 | 15-20% | 84 | 345 | 594
